The text below walks through data of ChEMBL document CHEMBL5030511, “Targeting KRAS Mutant Cancers via Combination Treatment: Discovery of a 5-Fluoro-4-(3H)-quinazolinone Aryl Urea pan-RAF Kinase Inhibitor” (J Med Chem, 2021).

≈ marks a conversion by molar mass, not a printed value. Calls of active or inactive are those of the source.

The subject of data set [1] is A-375. As to the kind of experiment: Antiproliferative activity against human A-375 cells harboring BRAF mutant assessed as reduction in cell viability incubated for 24 hrs by Click-iT EdU cell proliferation imaging assay. The class given is functional, cell-based. Conditions: A-375, 24 h.
Data set [2] deals with Serine/threonine-protein kinase B-raf (Homo sapiens, UniProt P15056).
Description: Inhibition of BRAF (unknown origin) (416 to 766) inactive MAP2K1 as substrate preincubated for 30 mins measured after 90 mins by DELFIA assay
Data set [3] has as its target RAF proto-oncogene serine/threonine-protein kinase (Homo sapiens, UniProt P04049, Y340D/Y341D).
Data set [4] concerns A549. Nature of the data set: Synergistic antiproliferative activity against human A549 cells harboring KRAS mutant assessed as reduction in cell viability incubated for 24 hrs in presence of 100 nM cobimetinib by Click-iT EdU cell proliferation imaging assay. Conditions: A549, 24 h. The class given is functional, cell-based.
Data set [5] relates to A549. As to the kind of experiment: Antiproliferative activity against human A549 cells harboring KRAS mutant assessed as reduction in cell viability incubated for 24 hrs by Click-iT EdU cell proliferation imaging assay. It is filed as functional, cell-based. Conditions: A549, 24 h.
Data set [6] in a line: Volume of distribution at steady state in mouse at 1 mg/kg, iv. Conditions: in vivo, read-out: Vdss. It is filed as ADME, organism-based.
The nature of data set [7]: Clearance in mouse at 1 mg/kg, iv. It is filed as ADME, organism-based. Conditions: in vivo.
A short description of data set [8]: Half life in mouse at 1 mg/kg, iv. Conditions: in vivo. The class given is ADME, organism-based.
Data set [9] in a line: Kinetic solubility of the compound in pH 7.4 PBS buffer. The class given is physicochemical. Conditions: read-out: Kinetic_solubility.
The nature of data set [10]: Lipophilicity, log D of the compound at pH 7.4. It is filed as physicochemical. Conditions: buffer.
A short description of data set [11]: Apparent permeability from apical to basolateral side in dog MDCK cells. It is filed as ADME, cell-based, Canis lupus familiaris.
A short description of data set [12]: Oral bioavailability in mouse using amorphous spray-dried dispersion at 25 mg/kg. The class given is ADME, organism-based. Conditions: in vivo.
Data set [13] can be described thus: Oral bioavailability in mouse using methylcellulose-tween at 5 mg/kg. The class given is ADME, organism-based. Conditions: in vivo.
In data set [14] the test system is Mus musculus. As to the kind of experiment: Induction of stabilization of CRAF phosphorylation in human HCT-116 cells xenografted NCR nude mouse assessed as decrease in pRSK level at 10 mg/kg, po bid for 4 days and measured after 2 to 8 hrs. It is filed as functional, organism-based. Conditions: time 4.0 day.
Data set [15] is described as follows: Toxicity in NCR nude mouse xenografted with human HCT-116 cells harboring KRAS mutant assessed as body weight loss at 10 mg/kg, po bid for 21 days in presence of 5 mg/kg Cobimetinib. Conditions: in vivo, 504 h, time 21 day. The class given is organism-based. (A xenograft is tissue or cells of one species grown in another, often human tumour cells in immunodeficient mice.)

Data set [16] can be described thus: Oral bioavailability in mouse using PEG 400 at 5 mg/kg. It is filed as ADME, organism-based. Conditions: in vivo.
Data set [17] relates to Mus musculus. As to the kind of experiment: Induction of stabilization of CRAF phosphorylation in human HCT-116 cells xenografted NCR nude mouse assessed as decrease in pERK level at 10 mg/kg, po bid for 4 days and measured after 2 to 8 hrs. It is filed as functional, organism-based. Conditions: time 4.0 day.
Data set [18] concerns Mus musculus. As to the kind of experiment: Induction of stabilization of CRAF phosphorylation in human HCT-116 cells xenografted NCR nude mouse assessed as decrease in pRSK level at 10 mg/kg, po bid for 4 days in presence of Cobimetinib and measured after 8 hrs. It is filed as functional, organism-based. Conditions: time 4.0 day.
For data set [19], the system named is Mus musculus. As to the kind of experiment: Induction of stabilization of CRAF phosphorylation in human HCT-116 cells xenografted NCR nude mouse assessed as decrease in pMEK level at 10 mg/kg, po bid for 4 days and measured after 2 to 8 hrs. The class given is functional, organism-based. Conditions: time 4.0 day.
Data set [20] relates to HCT-116. Nature of the data set: Synergistic antiproliferative activity against human HCT-116 cells harboring KRAS mutant assessed as inhibition of cell growth at 0.003 to 0.93 uM in presence of Cobimetinib by EdU staining based assay. Conditions: dose 0.003-0.93 µM. The class given is functional.
In data set [21] the test system is HCT-116. Nature of the data set: Antitumour activity against human HCT-116 cells harboring KRAS mutant xenografted in NCR nude mouse assessed as tumor growth inhibition at 10 mg/kg, po bid for 21 days in presence of 5 mg/kg Cobimetinib. The class given is functional. Conditions: HCT-116, po, 504 h, time 21 day, read-out: TGI.
The test system of data set [22] is A549. Nature of the data set: Synergistic antiproliferative activity against human A549 cells harboring KRAS mutant assessed as inhibition of cell growth in presence of Cobimetinib by EdU staining based assay. The class given is functional. Conditions: dose 0.02-5 µM.
The subject of data set [23] is HCT-116. As to the kind of experiment: Antitumour activity against human HCT-116 cells harboring KRAS mutant xenografted in NCR nude mouse assessed as tumor growth inhibition at 10 mg/kg, po bid for 21 days. It is filed as functional, organism-based. Conditions: time 21.0 day.
Data set [24] has as its system Mus musculus. Nature of the data set: Induction of CRAF phosphorylation in human HCT-116 cells xenografted NCR nude mouse at 10 mg/kg, po bid for 4 days in presence of Cobimetinib and measured after 2 to 8 hrs. The class given is functional, organism-based. Conditions: time 4.0 day.
The subject of data set [25] is Mus musculus. Nature of the data set: Induction of stabilization of CRAF phosphorylation in human HCT-116 cells xenografted NCR nude mouse assessed as decrease in pERK level at 10 mg/kg, po bid for 4 days in presence of Cobimetinib and measured after 8 hrs. The class given is functional, organism-based. Conditions: time 4.0 day.
Data set [26] is described as follows: Oral bioavailability in mouse using amorphous spray-dried dispersion at 30 mg/kg. The class given is ADME, organism-based. Conditions: in vivo.
Data set [27] concerns A-375. Nature of the data set: Additive antiproliferative activity against human A-375 cells harboring BRAF mutant assessed as inhibition of cell growth in presence of Cobimetinib by EdU staining based assay. The class given is functional.
Data set [28] in a line: Toxicity in NCR nude mouse xenografted with human HCT-116 cells harboring KRAS mutant assessed as body weight loss at 10 mg/kg, po bid for 21 days. Conditions: in vivo, 504 h, time 21 day. It is filed as organism-based.
For data set [29], the system named is HCT-116. Nature of the data set: Antitumour activity against human HCT-116 cells harboring KRAS mutant xenografted in NCR nude mouse assessed as tumor growth inhibition at 5 mg/kg, po qd for 21 days. The class given is functional, organism-based. Conditions: time 21.0 day.
Data set [30] has as its system Mus musculus. Nature of the data set: Inhibition of pERK in human HCT-116 cells xenografted NCR nude mouse at 5 mg/kg, po qd for 4 days and measured after 2 to 8 hrs. Conditions: time 4.0 day. The class given is functional, organism-based.

As a reminder, the IC50 is the concentration needed to halve the response being measured. What is called Ki is a dissociation constant, usually derived from enzyme kinetics or from competition with a known ligand. Higher therefore signals a looser hold on the target. The term clearance denotes a measure of how efficiently the substance is removed, as volume per time. High values mean a high capacity for elimination, low ones a low capacity for elimination. Broadly, the half-life is the time needed for the level to fall by half in the phase considered. Lower therefore signals rapid decline. One may read the logD as the decadic logarithm of the distribution of all forms, ionised or not, between an organic phase and buffer at a given pH. A high value points to higher lipophilicity. Usually Papp A→B stands for how fast a substance crosses the layer from the apical side. One may read the bioavailability as the share of a dose that reaches the circulation, judged against a reference dose that is usually intravenous. A high value points to good availability.

Chain of Serine/threonine-protein kinase B-raf (P15056 whole entry): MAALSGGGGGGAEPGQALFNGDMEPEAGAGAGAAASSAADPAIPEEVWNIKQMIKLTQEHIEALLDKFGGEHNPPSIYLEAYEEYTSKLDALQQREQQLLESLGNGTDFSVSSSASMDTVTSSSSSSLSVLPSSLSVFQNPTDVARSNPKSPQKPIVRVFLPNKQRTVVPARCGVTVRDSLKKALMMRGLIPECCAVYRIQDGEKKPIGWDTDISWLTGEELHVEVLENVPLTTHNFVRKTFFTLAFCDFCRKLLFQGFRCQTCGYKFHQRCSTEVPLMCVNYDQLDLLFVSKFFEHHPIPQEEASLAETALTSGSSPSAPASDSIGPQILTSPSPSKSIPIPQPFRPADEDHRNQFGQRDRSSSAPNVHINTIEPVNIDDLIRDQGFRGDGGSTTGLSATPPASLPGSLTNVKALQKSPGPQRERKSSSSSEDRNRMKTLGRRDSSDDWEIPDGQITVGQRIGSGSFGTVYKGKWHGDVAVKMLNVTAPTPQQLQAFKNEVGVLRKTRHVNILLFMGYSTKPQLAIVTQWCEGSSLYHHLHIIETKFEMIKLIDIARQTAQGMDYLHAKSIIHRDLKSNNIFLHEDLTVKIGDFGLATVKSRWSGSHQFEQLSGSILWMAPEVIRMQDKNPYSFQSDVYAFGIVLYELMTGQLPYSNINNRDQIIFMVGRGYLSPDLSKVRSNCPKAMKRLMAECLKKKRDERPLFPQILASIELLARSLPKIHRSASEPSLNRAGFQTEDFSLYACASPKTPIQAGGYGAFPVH
Chain of RAF proto-oncogene serine/threonine-protein kinase (P04049 whole entry Y340D/Y341D): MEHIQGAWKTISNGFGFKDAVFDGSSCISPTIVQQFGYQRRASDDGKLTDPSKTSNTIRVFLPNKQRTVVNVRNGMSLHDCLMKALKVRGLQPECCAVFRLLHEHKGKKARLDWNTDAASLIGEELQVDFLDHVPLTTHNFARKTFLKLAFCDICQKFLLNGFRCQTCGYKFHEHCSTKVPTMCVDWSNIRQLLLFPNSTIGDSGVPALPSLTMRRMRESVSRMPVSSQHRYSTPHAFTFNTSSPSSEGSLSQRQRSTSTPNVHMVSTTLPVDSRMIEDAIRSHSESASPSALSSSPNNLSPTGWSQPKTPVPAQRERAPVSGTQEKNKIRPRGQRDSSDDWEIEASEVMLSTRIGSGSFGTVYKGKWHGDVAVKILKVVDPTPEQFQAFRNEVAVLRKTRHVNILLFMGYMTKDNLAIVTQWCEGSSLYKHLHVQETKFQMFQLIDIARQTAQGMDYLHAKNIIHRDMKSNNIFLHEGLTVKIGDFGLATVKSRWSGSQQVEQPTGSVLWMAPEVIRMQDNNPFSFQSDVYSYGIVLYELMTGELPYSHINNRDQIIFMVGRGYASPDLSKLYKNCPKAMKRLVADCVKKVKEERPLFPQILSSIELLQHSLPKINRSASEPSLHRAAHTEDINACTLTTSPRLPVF

For the molecule `CNc1cc(-c2cccnc2Nc2cc(NC(=O)NCCC(C)(C)C)c(F)cc2C)ncn1`, the IC50 was 92.6 nM in data set [1], 208 nM in data set [4] and 2400 nM in [5]. Further, the Ki in data set [2] is below 0.08 nM; in data set [3] it was 0.06 nM.
As for `Cc1cc(F)c(NC(=O)NCCC(C)(C)C)cc1Nc1ccc2ncn(C)c(=O)c2c1`, the IC50 in data set [1] is 405 nM; in data set [4], 253 nM; in data set [5], 2700 nM. Moreover, the Vd in data set [6] came to 0.94 L/kg. The molecule also yielded a clearance in data set [7] of 50 mL/min/kg. For the same molecule, the half-life in data set [8] was 30 min. Also, the figures for the Ki in data set [2] and in [3] were below 0.08 nM and below 0.05 nM, respectively. In addition, the solubility kinetic in data set [9] is below 1 µM. In data set [10], this molecule returned a logD of 4.47. The Papp A→B in [11] stood at 3.6 ×10⁻⁶ cm/s. For the same molecule, the bioavailability in [12] is 2%; in data set [13], 0%.
As to `Cc1cc(F)c(NC(=O)NCCC(C)(C)C)cc1Nc1ccc2ncn(C)c(=O)c2c1F`, the outcome in data set [14], in data set [17], in data set [18], in data set [19], in data set [20] and in data set [23] was Active. The outcome in [24], in data set [25] and in data set [27] was Active. For the same molecule, the concentration for half-maximal inhibition (IC50) in [1] was found to be 112 nM; in [4] it was 169 nM; in data set [5], 2900 nM. Also, the Activity entry in data set [15] is “Non-Toxic”; in data set [22], “Dose-Dependent Effect”; in data set [28], 10%. The values for the bioavailability in [16] and in data set [26] were 26% and 60%, respectively. Also, the Vd in [6] was found to be 1.4 L/kg. This molecule also registered a clearance in data set [7] of 27 mL/min/kg. The half-life in data set [8] is 48 min. Besides, the inhibition in vivo at 10 mg/kg in [21] was 110%. Besides, the results for the Ki in [2] and in data set [3] were below 0.08 nM and 0.061 nM, respectively. The solubility kinetic in data set [9] is 3 µM (≈ 1.33 µg/mL). In data set [10], this molecule showed a logD of 4.47. Further, in [11], the Papp A→B was found to be 13 ×10⁻⁶ cm/s.
With `COc1n[nH]c2ncc(NC(=O)c3cc(NC(=O)NCCC(C)(C)C)c(F)cc3C)cc12`, the figures for the IC50 in data set [1], in [4] and in data set [5] were 47.4 nM, 158 nM and 986 nM, respectively. Besides, the Ki in data set [3] is below 0.05 nM.
With `O=C(c1ccc(F)c(F)c1Nc1ccc(I)cc1F)N1CC(O)([C@@H]2CCCCN2)C1`, in [29], the outcome was Active. Also, in data set [30], the inhibition result was “Active”.
With `Cc1cc(F)c(NC(=O)NCCC(C)(C)C)cc1NC(=O)N(C)c1cc(N)ncn1`, the IC50 came out at 85.3 nM in data set [1], 104 nM in [4] and 1400 nM in [5]. Moreover, the Ki in data set [2] is below 0.08 nM; in [3] it was below 0.05 nM.
The matching figures for `Cc1cc(F)c(NC(=O)NCCC(C)(C)C)cc1NC(=O)c1cccc2c(N)ncnc12`: 8 nM, 96.8 nM, 528 nM, below 0.08 nM and below 0.05 nM.
